# Read-outs that look alike come from different tables or passages of the source.
# Legend:
# Experiment in all cases: Test D pre-/postemergence plant response
# Assay type in all cases: in vivo
# [1] = system: yellow nutsedge (Cyperus esculentus); conditions: Cyperus, pre-emergence, Preemergence
# Summary of the method: (§1)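 Seeds were planted in a loam and sand blend and sprayed preemergence. In parallel, seedlings grown in peat moss/vermiculite medium were sprayed postemergence at 2 to 18 cm height. Both used a surfactant-containing non-phytotoxic solvent. Greenhouse ratings at 13 to 15 days used a 0–100 control scale.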
# [2] = system: ragweed (common ragweed, Ambrosia elatior); conditions: Ambrosia artemisiifolia; for pest or weed control at 16 g/ha: 16 g ai/ha; for pest or weed control at 31 g/ha: 31 g ai/ha; for pest or weed control at 62 g/ha: 62 g ai/ha; for pest or weed control at 125 g/ha: 125 g ai/ha
# Summary of the method: as §1
# [3] = system: giant foxtail (Setaria faberii); conditions: Setaria faberi; for pest or weed control at 16 g/ha: 16 g ai/ha; for pest or weed control at 31 g/ha: 31 g ai/ha; for pest or weed control at 62 g/ha: 62 g ai/ha; for pest or weed control at 125 g/ha: 125 g ai/ha
# Summary of the method: as §1
# [4] = system: galium (catchweed bedstraw, Galium aparine); conditions: Galium; for pest or weed control at 16 g/ha: 16 g ai/ha; for pest or weed control at 31 g/ha: 31 g ai/ha; for pest or weed control at 62 g/ha: 62 g ai/ha; for pest or weed control at 125 g/ha: 125 g ai/ha
# Summary of the method: as §1
# [5] = system: Italian ryegrass (Lolium multiflorum); conditions: Lolium multiflorum; for pest or weed control at 16 g/ha: 16 g ai/ha; for pest or weed control at 31 g/ha: 31 g ai/ha; for pest or weed control at 62 g/ha: 62 g ai/ha; for pest or weed control at 125 g/ha: 125 g ai/ha
# Summary of the method: as §1
# [6] = system: blackgrass (Alopecurus myosuroides); conditions: Alopecurus myosuroides; for pest or weed control at 16 g/ha: 16 g ai/ha; for pest or weed control at 31 g/ha: 31 g ai/ha; for pest or weed control at 62 g/ha: 62 g ai/ha; for pest or weed control at 125 g/ha: 125 g ai/ha
# Summary of the method: as §1
# [7] = pre-emergence, Preemergence, scale 0 to 100 (0 no effect, 100 complete control), read-out: Plant response rating, Ragweed
# [8] = post-emergence, Postemergence, scale 0 to 100, 0 no effect, 100 complete control, read-out: Plant response rating, Foxtail, Giant
# [9] = pre-emergence, Preemergence, scale 0 to 100 (0 no effect, 100 complete control), read-out: Plant response rating, Foxtail, Giant
# [10] = post-emergence, Postemergence, scale 0 to 100, 0 no effect, 100 complete control, read-out: Plant response rating, Galium
# [11] = pre-emergence, Preemergence, scale 0 to 100 (0 no effect, 100 complete control), read-out: Plant response rating, Galium
# [12] = pre-emergence, Preemergence, scale 0 to 100 (0 no effect, 100 complete control), read-out: Plant response rating, Ryegrass, Italian
# [13] = post-emergence, Postemergence, scale 0 to 100, 0 no effect, 100 complete control, read-out: Plant response rating, Blackgrass
# [14] = pre-emergence, Preemergence, scale 0 to 100 (0 no effect, 100 complete control), read-out: Plant response rating, Blackgrass
compound,measurement,setting,value
"FC(F)(F)c1cc(-c2ccccc2Oc2ncc(Cl)cn2)no1 [Compound 200, 5-chloro-2-[2-[5-(trifluoromethyl)-3-isoxazolyl]phenoxy]pyrimidine]",pest or weed control at 125 g/ha,"[1]; 125 g ai/ha, read-out: Plant response rating (scale 0 to 100), Nutsedge, Yellow",15%
same,pest or weed control at 16 g/ha,"[1]; 16 g ai/ha, scale 0 to 100 (0 no effect, 100 complete control), read-out: Plant response rating, Nutsedge, Yellow",0%
same,pest or weed control at 31 g/ha,"[1]; 31 g ai/ha, scale 0 to 100 (0 no effect, 100 complete control), read-out: Plant response rating, Nutsedge, Yellow",0%
same,pest or weed control at 62 g/ha,"[1]; 62 g ai/ha, scale 0 to 100 (0 no effect, 100 complete control), read-out: Plant response rating, Nutsedge, Yellow",0%
same,pest or weed control at 16 g/ha,"[2]; post-emergence, Postemergence, read-out: Plant response rating (scale 0 to 100), Ragweed",30%
same,pest or weed control at 31 g/ha,"[2]; post-emergence, Postemergence, scale 0 to 100 (0 no effect, 100 complete control), read-out: Ragweed plant response rating",55%
same,pest or weed control at 62 g/ha,"[2]; post-emergence, Postemergence, scale 0 to 100, 0 no effect, 100 complete control, read-out: Ragweed plant response rating",60%
same,pest or weed control at 125 g/ha,"[2]; post-emergence, Postemergence, scale 0 to 100, 0 no effect, 100 complete control, read-out: Plant response rating, Ragweed",40%
same,pest or weed control at 125 g/ha,"[2]; pre-emergence, Preemergence, read-out: Plant response rating (scale 0 to 100), Ragweed",80%
same,pest or weed control at 16 g/ha,[2]; [7],0%
same,pest or weed control at 31 g/ha,[2]; [7],5%
same,pest or weed control at 62 g/ha,[2]; [7],70%
same,pest or weed control at 16 g/ha,"[3]; post-emergence, Postemergence, read-out: Plant response rating (scale 0 to 100), Foxtail, Giant",5%
same,pest or weed control at 31 g/ha,"[3]; post-emergence, Postemergence, scale 0 to 100 (0 no effect, 100 complete control), read-out: Foxtail, Giant plant response rating",20%
same,pest or weed control at 62 g/ha,[3]; [8],10%
same,pest or weed control at 125 g/ha,[3]; [8],15%
same,pest or weed control at 125 g/ha,"[3]; pre-emergence, Preemergence, read-out: Plant response rating (scale 0 to 100), Foxtail, Giant",100%
same,pest or weed control at 16 g/ha,[3]; [9],95%
same,pest or weed control at 31 g/ha,[3]; [9],100%
same,pest or weed control at 62 g/ha,[3]; [9],100%
same,pest or weed control at 16 g/ha,"[4]; post-emergence, Postemergence, read-out: Plant response rating (scale 0 to 100), Galium",75%
same,pest or weed control at 31 g/ha,"[4]; post-emergence, Postemergence, scale 0 to 100 (0 no effect, 100 complete control), read-out: Galium plant response rating",100%
same,pest or weed control at 62 g/ha,[4]; [10],100%
same,pest or weed control at 125 g/ha,[4]; [10],100%
same,pest or weed control at 125 g/ha,"[4]; pre-emergence, Preemergence, read-out: Plant response rating (scale 0 to 100), Galium",95%
same,pest or weed control at 16 g/ha,[4]; [11],85%
same,pest or weed control at 31 g/ha,[4]; [11],98%
same,pest or weed control at 62 g/ha,[4]; [11],100%
same,pest or weed control at 16 g/ha,"[5]; post-emergence, Postemergence, read-out: Plant response rating (scale 0 to 100), Ryegrass, Italian",20%
same,pest or weed control at 31 g/ha,"[5]; post-emergence, Postemergence, scale 0 to 100 (0 no effect, 100 complete control), read-out: Ryegrass, Italian plant response rating",25%
same,pest or weed control at 62 g/ha,"[5]; post-emergence, Postemergence, scale 0 to 100, 0 no effect, 100 complete control, read-out: Ryegrass, Italian plant response rating",35%
same,pest or weed control at 125 g/ha,"[5]; post-emergence, Postemergence, scale 0 to 100, 0 no effect, 100 complete control, read-out: Plant response rating, Ryegrass, Italian",35%
same,pest or weed control at 125 g/ha,"[5]; pre-emergence, Preemergence, read-out: Plant response rating (scale 0 to 100), Ryegrass, Italian",90%
same,pest or weed control at 16 g/ha,[5]; [12],30%
same,pest or weed control at 31 g/ha,[5]; [12],80%
same,pest or weed control at 62 g/ha,[5]; [12],85%
same,pest or weed control at 16 g/ha,"[6]; post-emergence, Postemergence, read-out: Plant response rating (scale 0 to 100), Blackgrass",30%
same,pest or weed control at 31 g/ha,"[6]; post-emergence, Postemergence, scale 0 to 100 (0 no effect, 100 complete control), read-out: Blackgrass plant response rating",30%
same,pest or weed control at 62 g/ha,[6]; [13],40%
same,pest or weed control at 125 g/ha,[6]; [13],90%
same,pest or weed control at 125 g/ha,"[6]; pre-emergence, Preemergence, read-out: Plant response rating (scale 0 to 100), Blackgrass",90%
same,pest or weed control at 16 g/ha,[6]; [14],85%
same,pest or weed control at 31 g/ha,[6]; [14],90%
same,pest or weed control at 62 g/ha,[6]; [14],90%

# — patent US10131652B2, “Pyrimidinyloxy benzene derivatives as herbicides” (E. I. DU PONT DE NEMOURS AND COMPANY, priority 2014, dated 2018)
